From patent US20030165585A1, “Xanthine-containing compositions for oral administration and uses related thereto” (priority 2002, published 2003)

What was measured:
Type in all cases: in vivo, human
subjects [1] = test: Standard short-term memory test (repeating a read series of numbers backward); settings: three of the five subjects; test 30 minutes after ingestion
Protocol: The test consisted of an examiner reading a series of numbers to the subject and the subject subsequently being asked to repeat said numbers backward. In all cases, the test was initiated 30 minutes after ingestion of the composition.

subjects [2] = test: Stimulant effect: scores in video game of skill Pilot Wing before and after consuming composition; settings: five subjects, crossover over three days, Formulation I vs 180 mg caffeine vs placebo
Protocol: Five subjects were tested over a period of three days. […] Both prior to and after consuming the composition, each subject played a video game of skill called Pilot Wing™ made by Nintendo™.

[3] = Weight loss in overweight subjects, daily administration over two weeks; settings: Formulation I (ten subjects) vs 180 mg caffeine capsules (five) vs placebo (five), FIG. 1
Excerpt: Weights were averaged and weight loss was charted every three days in all groups.

Cn1c(=O)c2c(ncn2C)n(C)c1=O [caffeine]
digits repeated backwards without error (subjects [1]): could not repeat this accomplishment | video game scores after consuming the composition (subjects [2]): higher scores after consuming the caffeine, compared to consuming the placebo | weight loss compared between groups [3]: not matched
